According to the NIST ThermoML archive (doi:10.1016/j.tca.2013.03.025):

Assay: refractive index (Na D-line) (dimensionless); xn = mol fraction of the nth substance listed
Details: 101 kPa, Liquid, Standard Abbe refractometry

CCCCOC(=O)C(C)O (stereo not given) [butyl 2-hydroxypropanoate] + CCCO
refractive index
Details	x1 = 0.1	x1 = 0.2	x1 = 0.3001	x1 = 0.3998	x1 = 0.5	x1 = 0.5999	x1 = 0.7001	x1 = 0.7996	x1 = 0.8998	x1 = 1
288.15 K	1.39449	1.4003	1.4052	1.40922	1.41285	1.41543	1.41816	1.42021	1.42209	1.42379
293.15 K	1.39238	1.39818	1.40305	1.40704	1.41067	1.41321	1.41593	1.41798	1.41984	1.42152
298.15 K	1.39028	1.39605	1.40088	1.40485	1.40846	1.41101	1.41369	1.41572	1.41758	1.41925
303.15 K	1.38813	1.39389	1.3987	1.40265	1.40623	1.40877	1.41144	1.41346	1.4153	1.41697
308.15 K	1.38599	1.3917	1.39651	1.40042	1.40398	1.40652	1.40919	1.4112	1.41304	1.41469
313.15 K	1.38382	1.38951	1.39427	1.3982	1.4017	1.40425	1.40691	1.40893	1.41077	1.4124
318.15 K	1.3816	1.38726	1.39198	1.39591	1.39938	1.40195	1.40455	1.40658	1.40842	1.41005
323.15 K	1.37938	1.38505	1.38973	1.39364	1.3971	1.39967	1.40228	1.40433	1.40617	1.40778

CCCCOC(=O)C(C)O (stereo not given) [butyl 2-hydroxypropanoate] + OCCCO
refractive index
Details	x1 = 0.0999	x1 = 0.2	x1 = 0.3001	x1 = 0.4	x1 = 0.4999	x1 = 0.5999	x1 = 0.6996	x1 = 0.8001	x1 = 0.9	x1 = 1
288.15 K	1.43875	1.43674	1.43484	1.43308	1.43138	1.42969	1.42809	1.42652	1.4251	1.42379
293.15 K	1.43724	1.4351	1.43311	1.43126	1.42947	1.4277	1.42602	1.42438	1.4229	1.42152
298.15 K	1.43568	1.43346	1.43136	1.42942	1.42754	1.42569	1.42396	1.42225	1.4207	1.41925
303.15 K	1.43417	1.4318	1.4296	1.42758	1.42563	1.42369	1.42187	1.4201	1.4185	1.41697
308.15 K	1.43265	1.43015	1.42783	1.42571	1.42367	1.42167	1.4198	1.41796	1.41629	1.4147
313.15 K	1.43112	1.42848	1.42606	1.42385	1.42173	1.41964	1.4177	1.41579	1.41408	1.41241
318.15 K	1.4296	1.42681	1.42426	1.42197	1.41977	1.41759	1.41556	1.41358	1.41183	1.41006
323.15 K	1.42813	1.42537	1.42267	1.42009	1.41772	1.41555	1.41347	1.41153	1.40962	1.40778

CCCCOC(=O)C(C)O (stereo not given) [butyl 2-hydroxypropanoate] + CC(O)CO
refractive index
Details	x1 = 0.0999	x1 = 0.2	x1 = 0.3	x1 = 0.3999	x1 = 0.4998	x1 = 0.6	x1 = 0.6996	x1 = 0.7999	x1 = 0.9	x1 = 1
288.15 K	1.43214	1.43049	1.42918	1.42809	1.42709	1.42629	1.42548	1.42482	1.42412	1.42379
293.15 K	1.43038	1.42865	1.42726	1.42611	1.42506	1.42421	1.42336	1.42266	1.42191	1.42152
298.15 K	1.42861	1.42683	1.42535	1.42414	1.42303	1.42211	1.42124	1.42048	1.4197	1.41925
303.15 K	1.42682	1.42494	1.4234	1.42214	1.42099	1.42002	1.4191	1.41831	1.41749	1.41697
308.15 K	1.42503	1.42307	1.42146	1.42013	1.41894	1.4179	1.41696	1.41611	1.41528	1.4147
313.15 K	1.42323	1.42118	1.4195	1.41814	1.41687	1.41575	1.41482	1.41392	1.41307	1.41241
318.15 K	1.42143	1.41927	1.41751	1.41605	1.41479	1.41365	1.41265	1.41169	1.41083	1.41006
323.15 K	1.41962	1.4173	1.41556	1.41404	1.41275	1.41156	1.41049	1.4095	1.40859	1.40778
